Measurements taken from patent US11541129B2, “Nanoreservoir coated medical devices, biomaterials, and bioprosthetics” (Université de Liège, priority 2016, dated 2023).
≈ marks a conversion by molar mass, not a printed value.

Tested on: platelets
Assay: ADP-induced platelet aggregation in PRP (light transmission aggregometry)
Format: cell-based
Conditions: Homo sapiens, 10 μM ADP, 37° C., read-out: IC50 concentration of free ticagrelor, ADP-induced platelet aggregation
Procedure: (A) PRP was pre-incubated for 10 min with a solution of nanoreservoir containing increasing concentrations of ticagrelor or with free ticagrelor, as indicated. Platelet aggregation was induced by adding 10 μM ADP at 37° C. under stirring conditions (1200 rpm). Percentages of maximum aggregation recorded by light transmission aggregometry are shown. Data represent means±SD (*p<0.05, **p<0.01, ***p<0.001). (B) Maximum platelet aggregation obtained in the presence of different ratios of ticagrelor-loaded nanogels and minocycline-loaded nanogels. NG: nanogel bearing PEG 1500; NGT: ticagrelor-loaded nanogel bearing PEG 1500; NGM: minocycline-loaded nanogel bearing PEG 1500. Data represent means±SD.
Platelet-rich-plasma (PRP) was prepared by centrifugation of citrate anticoagulated human blood at 100×g for 15 min at room temperature. Platelet aggregation experiments were performed on PRP aliquots under stirring (1200 rpm) at 37° C. using light aggregometry (Chrono-Log Model 700 aggregometer, Kordia).
For this purpose, 1 ml of nanogel suspensions loaded with increasing concentrations of ticagrelor was centrifuged at 12000 g for 15 minutes, washed 2 times in PBS and resuspended in 300 μL of PBS. 260 μL of platelet-rich-plasma (PRP) was incubated with 10 μL of purified nanogel suspensions for 10 min. Platelet aggregation was then induced by adding 10 μM ADP at 37° C. under stirring conditions. […]

CCCSc1nc(N[C@@H]2C[C@H]2c2ccc(F)c(F)c2)c2nnn([C@@H]3C[C@H](OCCO)[C@@H](O)[C@H]3O)c2n1 [ticagrelor]
IC50: 1.8 µg/mL (≈ 3.44 µM)
